Experimental data published in ChEMBL document CHEMBL5506051, “Structure-Activity Relationships toward the Identification of a High-Potency Selective Human Toll-like Receptor-7 Agonist” (J Med Chem, 2024).

Columns and labels:
[1] = system: Panel NCI-60 (60 carcinoma cell lines); assay: Cytotoxicity against human Panel NCI-60 (60 carcinoma cell lines) at <=10 uM; assay type: toxicity, cell-based
Toll-like receptor 8 = molecular target: T1, Toll-like receptor 8 (Homo sapiens, UniProt Q9NR97); assay: Agonist activity at human TLR8 in HEK-Blue hTLR8 cells assessed as increase in inducible SEAP level incubated for overnight by QUANTI-Blue reagent based assay; assay type: cell-based
T1 sequence (Q9NR97 whole entry): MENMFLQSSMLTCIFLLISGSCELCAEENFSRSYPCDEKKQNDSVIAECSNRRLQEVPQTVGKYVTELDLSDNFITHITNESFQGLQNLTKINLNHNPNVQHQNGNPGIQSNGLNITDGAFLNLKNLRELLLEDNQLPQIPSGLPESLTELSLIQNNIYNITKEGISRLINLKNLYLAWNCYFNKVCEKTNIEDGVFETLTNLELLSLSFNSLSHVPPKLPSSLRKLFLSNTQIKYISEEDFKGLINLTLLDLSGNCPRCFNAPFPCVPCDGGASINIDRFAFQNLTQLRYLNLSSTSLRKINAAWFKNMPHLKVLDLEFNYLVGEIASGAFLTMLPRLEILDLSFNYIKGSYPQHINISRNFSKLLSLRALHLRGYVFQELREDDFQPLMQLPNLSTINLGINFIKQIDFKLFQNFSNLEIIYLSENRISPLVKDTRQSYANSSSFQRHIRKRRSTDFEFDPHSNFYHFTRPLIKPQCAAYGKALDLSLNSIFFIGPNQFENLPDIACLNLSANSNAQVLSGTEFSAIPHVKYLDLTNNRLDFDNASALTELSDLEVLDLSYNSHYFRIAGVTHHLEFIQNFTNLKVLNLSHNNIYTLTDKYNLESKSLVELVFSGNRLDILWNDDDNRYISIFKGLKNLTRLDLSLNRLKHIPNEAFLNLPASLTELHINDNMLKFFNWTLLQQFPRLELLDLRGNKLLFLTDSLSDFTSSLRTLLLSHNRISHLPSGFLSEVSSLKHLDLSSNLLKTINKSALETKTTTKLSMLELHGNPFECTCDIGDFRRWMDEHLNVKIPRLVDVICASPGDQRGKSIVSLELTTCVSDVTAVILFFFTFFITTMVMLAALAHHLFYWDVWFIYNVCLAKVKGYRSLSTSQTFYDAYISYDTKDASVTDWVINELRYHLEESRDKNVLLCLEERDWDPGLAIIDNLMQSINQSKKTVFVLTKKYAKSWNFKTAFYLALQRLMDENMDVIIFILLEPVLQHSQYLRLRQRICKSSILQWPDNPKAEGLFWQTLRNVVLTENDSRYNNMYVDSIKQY

Toll-like receptor 7 = molecular target: T2, Toll-like receptor 7 (Homo sapiens, UniProt Q9NYK1); assay: Agonist activity at human TLR7 in HEK-Blue hTLR7 cells assessed as increase in inducible SEAP level incubated for overnight by QUANTI-Blue reagent based assay; assay type: cell-based
T2 sequence (Q9NYK1 whole entry): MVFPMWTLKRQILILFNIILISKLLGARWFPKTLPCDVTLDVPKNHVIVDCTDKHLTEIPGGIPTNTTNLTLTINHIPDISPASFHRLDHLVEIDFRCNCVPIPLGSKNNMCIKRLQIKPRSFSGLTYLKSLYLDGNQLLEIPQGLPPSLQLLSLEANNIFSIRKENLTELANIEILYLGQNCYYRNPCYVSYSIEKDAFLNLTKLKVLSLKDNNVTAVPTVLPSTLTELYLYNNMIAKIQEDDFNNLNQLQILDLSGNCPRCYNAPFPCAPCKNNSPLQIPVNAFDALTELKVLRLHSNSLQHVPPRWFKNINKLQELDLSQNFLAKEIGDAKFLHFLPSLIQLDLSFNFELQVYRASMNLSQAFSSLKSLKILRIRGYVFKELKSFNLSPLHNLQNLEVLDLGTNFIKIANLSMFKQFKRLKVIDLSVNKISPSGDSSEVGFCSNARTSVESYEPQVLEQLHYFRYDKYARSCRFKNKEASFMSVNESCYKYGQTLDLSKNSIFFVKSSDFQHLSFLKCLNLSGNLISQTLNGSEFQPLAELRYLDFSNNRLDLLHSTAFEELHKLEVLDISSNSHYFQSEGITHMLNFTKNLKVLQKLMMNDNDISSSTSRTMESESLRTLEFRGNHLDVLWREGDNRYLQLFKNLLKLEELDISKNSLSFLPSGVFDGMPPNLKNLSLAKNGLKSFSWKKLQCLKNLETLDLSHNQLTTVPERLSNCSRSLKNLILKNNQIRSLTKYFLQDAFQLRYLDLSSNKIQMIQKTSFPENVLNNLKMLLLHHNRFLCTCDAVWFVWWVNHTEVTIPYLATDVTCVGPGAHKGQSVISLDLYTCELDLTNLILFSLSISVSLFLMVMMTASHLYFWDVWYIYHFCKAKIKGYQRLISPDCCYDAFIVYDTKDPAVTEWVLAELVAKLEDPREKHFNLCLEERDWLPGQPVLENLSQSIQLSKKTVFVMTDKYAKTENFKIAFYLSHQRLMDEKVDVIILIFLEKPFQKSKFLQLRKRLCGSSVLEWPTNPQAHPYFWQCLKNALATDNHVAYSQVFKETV

Homo sapiens [2] = species: Homo sapiens; assay: Selectivity index, ratio of EC50 for agonist activity at human TLR7 in HEK-Blue hTLR7 cells to EC50 for agonist activity at human TLR8 in HEK-Blue hTLR8 cells; assay type: cell-based
[3] = molecular target: T3, Toll-like receptor 7 (Homo sapiens) (UniProt Q9NYK1); assay: Potency index, ratio of BBIQ EC50 to test compound EC50 for agonist activity at human TLR7 in HEK-Blue hTLR7 cells assessed as increase in inducible SEAP level incubated for overnight by QUANTI-Blue reagent based assay; assay type: cell-based; settings: filed as agonist
T3 sequence (whole entry): T2 sequence (Q9NYK1 whole entry)

Homo sapiens [4] = species: Homo sapiens; assay: Selectivity ratio of agonist activity at human TLR8 to agonist activity at human TLR7

SMILES | EC50 (Toll-like receptor 8) [µM] | EC50 (Toll-like receptor 7) [µM] | also measured
CCCCCCCCNC(=O)c1ccc(Cn2c(CCCC)nc3c(N)nc4ccccc4c32)cc1 | – | – | Activity [1]: Non-Toxic
CC(C)Cn1cnc2c(N)nc3ccccc3c21 [IMIQUIMOD] | – | 8.29 | –
CCCCc1nc2c(N)nc3ccccc3c2n1Cc1ccccc1 | – | 0.85 | –
CCCCOc1nc(N)c2c(n1)N(Cc1cccc(CN3CCCC3)c1)CC(=O)N2 | – | – | Selectivity ratio (Homo sapiens [4]): 30
CCCCc1nc2c(N)nc3ccccc3c2n1Cc1ccc(C(=O)NCCO)cc1 | 50.3 | – | –
CCCCc1nc2c(N)nc3ccccc3c2n1Cc1ccc(C(=O)NCC(C)(C)O)cc1 | 25.8 | 0.31 | –

The next lines start with results.

EC50 (Toll-like receptor 8) [µM] | EC50 (Toll-like receptor 7) [µM] | SMILES | also measured
18.2 | 0.32 | CCCCc1nc2c(N)nc3ccccc3c2n1Cc1ccc(C(N)=O)cc1 | Ratio EC50 (Homo sapiens [2]): 57; Ratio EC50 [3]: 3
– | 1.83 | CCCCc1nc2c(N)nc3ccccc3c2n1Cc1ccc(OC)cc1 | –
– | 1.1 | CCCCc1nc2c(N)nc3ccccc3c2n1Cc1ccc(C(=O)NN)cc1 | –
125 | – | CCCCc1nc2c(N)nc3ccccc3c2n1Cc1ccc(O)cc1 | –
31.8 | 0.2 | CCCCc1nc2c(N)nc3ccccc3c2n1Cc1ccc(C(=O)NC)cc1 | Activity [1]: Non-Toxic; Ratio EC50 (Homo sapiens [2]): 159; Ratio EC50 [3]: 8
